Laboratory results: patent US10688093B2, “Methods, compositions, and uses of novel Fyn kinase inhibitors” (priority 2015, dated 2020)

Target: full-length recombinant human FYN A (Homo sapiens (Human), UniProt P06241)
Test: ADP-Glo Kinase Assay of FYN kinase inhibition
Type: biochemical
Details: primary screen, initial compounds
Outline: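 GST-tagged full-length FYN A (baculovirus, Sf9) at 3 pg preincubated 30 min RT with compound (10-point 3-fold series from 10 μM) in Tris pH 7.5/MgCl2 buffer. 12-mer tyrosine peptide plus 12.5 pmol ATP added, 90 min RT; ADP measured by ADP-Glo luminescence, IC50 from dose-response.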

Sequence of full-length recombinant human FYN A (P06241 whole entry): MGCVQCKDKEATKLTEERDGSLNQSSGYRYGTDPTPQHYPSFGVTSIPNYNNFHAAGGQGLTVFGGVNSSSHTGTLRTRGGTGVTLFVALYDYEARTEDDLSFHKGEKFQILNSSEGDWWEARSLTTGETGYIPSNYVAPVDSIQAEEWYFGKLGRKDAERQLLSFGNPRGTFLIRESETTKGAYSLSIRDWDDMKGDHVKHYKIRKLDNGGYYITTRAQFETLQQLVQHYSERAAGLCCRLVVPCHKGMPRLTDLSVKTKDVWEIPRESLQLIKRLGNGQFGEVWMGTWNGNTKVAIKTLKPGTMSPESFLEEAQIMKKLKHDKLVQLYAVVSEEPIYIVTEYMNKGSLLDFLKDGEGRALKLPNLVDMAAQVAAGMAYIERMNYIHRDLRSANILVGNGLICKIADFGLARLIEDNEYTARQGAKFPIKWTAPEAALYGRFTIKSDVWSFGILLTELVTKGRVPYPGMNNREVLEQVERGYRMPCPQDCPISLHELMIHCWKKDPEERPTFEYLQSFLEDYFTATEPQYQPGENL

SMILES | IC50 [µM]
Oc1cccc(-c2cnc3cnc(-c4ccc(NCCN5CCOCC5)nc4)cn23)c1 [Compound 241, 3-[6-[6-(2-morpholino-ethylamino)-3-pyridyl]imidazo [1,2-a]pyrazin-3-yl]phenol] | 2.94
CN(C)CCCNC(=O)c1ccc(-c2cn3c(-c4cccc(O)c4)cnc3cn2)cc1 [Compound 242, N-[3-(dimethylamino)propyl]-4-[3-(3-hydroxyphenyl)imidazo[1,2-a]pyrazin-6-yl]benzamide] | 1.61
O=C(NCCO)c1ccc(-c2cn3c(-c4cccc(O)c4)cnc3cn2)cc1 [Compound 243, N-(2-hydroxyethyl)-4-[3-(3-hydroxyphenyl)imidazo[1,2-a]pyrazin-6-yl]benzamide] | 1.72
CN(C)CCCNC(=O)c1ccc(-c2cn3c(-c4ccc5c(c4)OCO5)cnc3cn2)cc1 [Compound 244, 4-[3-(1,3-benzodioxol-5-yl)imidazo[1,2-a]pyrazin-6-yl]-N-[3-(dimethylamino)propyl]benzamide] | 6.03
CN1CCN(c2ccc(-c3cn4c(-c5ccccc5)cnc4cn3)cn2)CC1 [Compound 245, 6-[6-(4-methylpiperazin-1-yl)-3-pyridyl]-3-phenyl-imidazo[1,2-a]pyrazine] | 10.9
CC(C)N1CCN(c2ccc(-c3cn4c(-c5cccc(O)c5)cnc4cn3)cc2)CC1 [Compound 246, 3-[6-[4-(4-isopropyl-piperazin-1-yl)phenyl]imidazo [1,2-a]pyrazin-3-yl]phenol] | 2.61
Nc1ccc(-c2cn3c(-c4ccc5c(c4)OCO5)cnc3cn2)cn1 [Compound 247, 5-[3-(1,3-benzodioxol-5-yl)imidazo[1,2-a]pyrazin-6-yl]pyridin-2-amine] | 10.2
CN(C)CCCOc1ccc(-c2cn3c(-c4ccc(O)cc4)cnc3cn2)cn1 [Compound 248, 4-[6-[6-[3-(dimethylamino)propoxy]-3-pyridyl]imidazo [1,2-a]pyrazin-3-yl]phenol] | 1.32
Oc1ccc(-c2cnc3cnc(-c4ccc(NCCN5CCOCC5)nc4)cn23)cc1 [Compound 249, 4-[6-[6-(2-morpholino-ethylamino)-3-pyridyl]imidazo [1,2-a]pyrazin-3-yl]phenol] | 1.31
CN1CCN(c2ccc(-c3cn4c(-c5ccc(O)cc5)cnc4cn3)cn2)CC1 [Compound 250, 4-[6-[6-(4-methylpiperazin-1-yl)-3-pyridyl]imidazo [1,2-a]pyrazin-3-yl]phenol] | 2.21
CN(C)C(=O)c1cccc(-c2cnc3sc(NC4CCCCC4)nn23)c1 [Compound 251, 3-[2-(cyclo-hexylamino)imidazo[2,1-a] [1,3,4]thiadiazol-5-yl]-N,N-dimethyl-benzamide] | 0.718
CN(C)C(=O)c1cccc(-c2cnc3sc(NCCc4ccc(S(N)(=O)=O)cc4)nn23)c1 [Compound 252, N,N-dimethyl-3-[2-[2-(4-sulfamoylphenyl)ethylamino]imidazo[2,1-a] [1,3,4]thiadiazol-5-yl]benzamide] | 0.909
CN(C)C(=O)c1cccc(-c2cnc3sc(NC4CCC(O)CC4)nn23)c1 (centres unmarked) [Compound 253, 3-[2-[(4-hydroxycyclo-hexyl)amino]imidazo[2,1-b] [1,3,4]thiadiazol-5-yl]-N,N-dimethyl-benzamide] | 0.533
CC(=O)c1cccc(-c2cnc3sc(NC4CCC(O)CC4)nn23)c1 (centres unmarked) [Compound 254, 1-[3-[2-[(4-hydroxycyclo-hexyl)amino]imidazo[2,1-a] [1,3,4]thiadiazol-5-yl]phenyl] ethanone] | 0.487
COc1ccc(-c2cnn3c(N)c(-c4cccc(Cl)c4)cnc23)cc1OC [Compound 255, 6-(3-chlorophenyl)-3-(3,4-dimethoxyphenyl) pyrazolo[1,5-a]pyrimidin-7-amine] | 0.804
CN(C)C(=O)c1cccc(-c2cnc3sc(NCC4CCOCC4)nn23)c1 [Compound 268, N,N-dimethyl-3-[2-(tetrahydro-pyran-4-ylmethylamino)imidazo[2,1-b] [1,3,4]thiadiazol-5-yl]benzamide] | 2.73
COc1cncc(-c2cnc3sc(NCc4ccc5c(c4)OCO5)nn23)c1 [Compound 271, N-(1,3-benzodioxol-5-ylmethyl)-5-(5-methoxy-3-pyridyl)imidazo [2,1-b] [1,3,4]thiadiazol-2-amine] | 0.448
CC(=O)Nc1cccc(-c2ccc3ncc(-c4cccc(NC(C)=O)c4)n3n2)c1 [Compound 279, N-[3-[3-(3-acetamidophenyl)imidazo[1,2-b]pyridazin-6-yl]phenyl] acetamide] | 0.553

Other lines, results leading:

IC50 [µM] | SMILES
4.57 | CC(=O)Nc1cccc(-c2cnc3sc(NCc4ccco4)nn23)c1 [Compound 256, N-[3-[2-(2-furylmethylamino)imidazo[2,1-a] [1,3,4]thiadiazol-5-yl]phenyl] acetamide]
0.977 | CN(C)C(=O)c1cccc(-c2cnc3sc(NCC4CC4)nn23)c1 [Compound 257, 3-[2-(cyclopropyl-methylamino)imidazo[2,1-d] [1,3,4]thiadiazol-5-yl]-N,N-dimethyl-benzamide]
0.283 | CC(C)CNc1nn2c(-c3cccc(C(=O)N(C)C)c3)cnc2s1 [Compound 258, 3-[2-(isobutylamino)imidazo[2,1-d] [1,3,4]thiadiazol-5-yl]-N,N-dimethyl-benzamide]
2.76 | CN(C)C(=O)c1cccc(-c2cnc3sc(NCc4ccc(F)cc4)nn23)c1 [Compound 259, 3-[2-[(4-fluorophenyl)methylamino]imidazo[2,1-b] [1,3,4]thiadiazol-5-yl]-N,N-dimethyl-benzamide]
3.93 | CC(=O)Nc1cccc(-c2cnc3sc(NCc4cccs4)nn23)c1 [Compound 260, N-[3-[2-(2-thienylmethyl-amino)imidazo [2,1-b] [1,3,4]thiadiazol-5-yl]phenyl] acetamide]
2.26 | Cn1cc(-c2cnc3sc(NCCc4ccc(S(N)(=O)=O)cc4)nn23)cn1 [Compound 261, 4-[2-[[5-(1-methylpyrazol-4-yl)imidazo[2,1-d][1,3,4]thiadiazol-2-yl]amino]ethyl] benzene-sulfonamide]
5.79 | CN(C)c1cccc(-c2cnc3sc(NC4CCC(O)CC4)nn23)c1 (centres unmarked) [Compound 262, 4-[[5-[3-(dimethylamino)phenyl]imidazo [2,1-a] [1,3,4]thiadiazol-2-yl]amino] cyclohexanol]
7.07 | CC(C)CNc1nn2c(-c3cccc(NS(C)(=O)=O)c3)cnc2s1 [Compound 263, N-[3-[2-(isobutylamino)imidazo[2,1-b] [1,3,4]thiadiazol-5-yl]phenyl] methane-sulfonamide]
2.88 | NC(=O)c1cccc(-c2cnc3sc(NCCCO)nn23)c1 [Compound 264, 3-[2-(3-hydroxypropyl-amino)imidazo [2,1-b][1,3,4]thiadiazol-5-yl]benzamide]
3.8 | Oc1ccc(-c2cnc3sc(NC4CCC(O)CC4)nn23)cc1 (centres unmarked) [Compound 265, 4-[2-[(4-hydroxycyclo-hexyl)amino]imidazo[2,1-b] [1,3,4]thiadiazol-5-yl]phenol]
1.23 | NC(=O)c1cccc(-c2cnc3sc(NCc4ccco4)nn23)c1 [Compound 266, 3-[2-(2-furylmethyl-amino)imidazo[2,1-b] [1,3,4]thiadiazol-5-yl]benzamide]
2.61 | COc1ccc(-c2cnc3sc(NCCc4ccc(S(N)(=O)=O)cc4)nn23)cn1 [Compound 267, 4-[2-[[5-(6-methoxy-3-pyridyl)imidazo [2,1-b] [1,3,4]thiadiazol-2-yl]amino]ethyl]benzene-sulfonamide]
5.17 | COc1cncc(-c2cnc3sc(NCC(C)C)nn23)c1 [Compound 270, N-isobutyl-5-(5-methoxy-3-pyridyl)imidazo [2,1-b] [1,3,4]thiadiazol-2-amine]
0.169 | COc1cc(-c2cnc3ccc(-c4ccc(NC(C)=O)cc4)nn23)ccc1O [Compound 272, N-[4-[3-(4-hydroxy-3-methoxy-phenyl)imidazo [1,2-b]pyridazin-6-yl]phenyl] acetamide]
1.17 | CC(=O)Nc1cccc(-c2cnc3ccc(-c4ccc5c(c4)OCO5)nn23)c1 [Compound 273, N-[3-[6-(1,3-benzodioxol-5-yl)imidazo[1,2-b]pyridazin-3-yl]phenyl] acetamide]
1.11 | CC(=O)Nc1cccc(-c2ccc3ncc(-c4ccc5c(c4)OCO5)n3n2)c1 [Compound 274, N-[3-[3-(1,3-benzodioxol-5-yl)imidazo[1,2-b]pyridazin-6-yl]phenyl] acetamide]
2.03 | CC(=O)Nc1cc(-c2ccc(C(=O)N3CCOCC3)cc2)cn2c(-c3cccc(C(C)=O)c3)cnc12 [Compound 275]
1.5 | CC(=O)Nc1cccc(-c2cnc3ccc(-c4cccc(OC(F)(F)F)c4)nn23)c1 [Compound 276, N-[3-[6-[3-(trifluoromethoxy)phenyl]imidazo [1,2-b]pyridazin-3-yl]phenyl] acetamide]
0.653 | COc1ccc(-c2ccc3ncc(-c4cccc(C(C)=O)c4)n3n2)cc1OC [Compound 277, 1-[3-[6-(3,4-dimethoxyphenyl)imidazo[1,2-b]pyridazin-3-yl]phenyl] ethanone]
1.08 | CC(=O)Nc1cccc(-c2cnc3ccc(-c4ccc(S(C)(=O)=O)cc4)nn23)c1 [Compound 278, N-[3-[6-(4-methylsulfonyl-phenyl)imidazo [1,2-b]pyridazin-3-yl]phenyl] acetamide]
2.33 | COc1ccc(CNc2nn3c(-c4cccc(C(=O)N(C)C)c4)cnc3s2)cc1 [Compound 280, 3-[2-[(4-methoxyphenyl)methylamino]imidazo[2,1-b] [1,3,4]thiadiazol-5-yl]-N,N-dimethyl-benzamide]
0.621 | CC(=O)Nc1cccc(-c2ccc3ncc(-c4cccc(C(C)=O)c4)n3n2)c1 [Compound 281, N-[3-[3-(3-acetylphenyl)imidazo[1,2-b]pyridazin-6-yl]phenyl] acetamide]
0.222 | CC(=O)Nc1cccc(-c2cnc3ccc(-c4ccc(C(N)=O)cc4)nn23)c1 [Compound 282, 4-[3-(3-acetamidophenyl)imidazo[1,2-b]pyridazin-6-yl]benzamide]
